pIC50: −log10 of the molar value. Values after ≈ are worked out from the molar mass of the structure shown.
Key:
[1] = system: Balb/c 3T3 mouse fibroblasts; assay: 3T3 in vitro phototoxicity assay (Neutral Red uptake); format: cell-based; settings: for Phototoxicity factor: Factor=IC50(-UV)/IC50(+UV), cut-off >5; for IC50: Mus musculus, BALB/c3T3, light or radiation study, with approx. 5 J/cm2 UVA light, Neutral Red uptake
Text: 3T3 In Vitro Phototoxicity Assay
Phototoxicity is defined as a toxic response that is elicited after the first exposure of the skin to certain chemicals and subsequent exposure to light, or that is induced similarly by skin irradiation after systemic administration of a chemical substance. The assay used in this study is designed to detect the phototoxic potential of a chemical by using a simple in vitro cytotoxicity assay with Balb/c 3T3 mouse fibroblasts. The principle of this test is a comparison of the cytotoxicity of a chemical when tested with and without exposure to a non-toxic dose of UVA-light. Cytotoxicity is expressed as a dose dependent reduction of the growth rate of cells as determined by uptake of the vital dye Neutral Red one day after treatment.
A small amount of substance was weighed and formulated freshly in DMSO just before the start of the exposure of the cells. This stock solution or appropriate dilutions with DMSO were added to the cell suspensions to obtain the required final concentrations. All solutions were generally prepared in Eppendorf caps and discarded after use.
Chlorpromazine (HCL) (Sigma, Batch/Lot No.: 120M1328V), test concentration: 300 μg/mL, Solvent: PBS/3% DMSO
For this study the Neutral Red uptake (NRU) assay of Borenfreund and Puemer (Borenfreund, E, Puemer J A. Toxicity determined in vitro by morphological alterations and Neutral Red absorption. Toxicology Lett. 1985; 24:119-124) modified according to INVITTOX protocol No 78 (ERGATT/FRAME data bank of in vitro techniques in toxicology. INVITTOX PROTOCOL No 78. 3T3 NRU Phototoxicity Assay. March 1994) has been adapted to examine a possible phototoxic potential of the test item. This assay is based on the active uptake of the Neutral Red dye into the lysosomes of cultured murine fibroblasts. Because lysosomal membranes are known to be a site of action of many phototoxic compounds, this assay can provide a measure of potential for phototoxic injury.
A murine fibroblasts clone A 31 (ATCC no. CCL 163—passage No. 108) were cultured in 175 cm^2 tissue culture grade flasks, containing sDMEM (Dulbecco's […] Essential Medium, supplemented with 10% fetal calf serum, 2 mM L-glutamine, 100 units/ml Penicillin and 100 μg/ml streptomycin) at 37° C. in a humidified atmosphere of 6% CO2. Before cells approach confluence they were removed from flasks by trypsinisation. Prior to use in an assay, the cells were transferred to 96-well microtiter plates at a concentration of 1×10^4 cells/well in 100 μl volumes of sDMEM and allowed to attach for 24 h.
For incubation with murine fibroblasts, the test item was diluted in PBS/3% DMSO (detailed concentrations see in results).
Culture medium (Dulbecco's Modified Eagle Medium (DMEM), GlutaMAX (Gibco Ref 21885-025), 10% Fetal Bovine Serum (FBS) (Gibco Ref 10270-106), 100 IU/ml Penicillin and 100 μg/ml Streptomycin (Gibco Ref 15140-122)) was removed from the wells and murine fibroblasts were washed with PBS. Afterwards 100 μL of PBS/3% DMSO containing the test item was added and target cells were incubated for 1 h at 37° C. with 6% CO2.
For each test item the microtiter plates were prepared according to Table 4. “UVA plates” were exposed to approx. 5 J/cm^2 UVA light, the “Dark plates” were kept in the dark and served as cytotoxicity control. Plates with chlorpromazine hydrochloride served as positive control. UV flux was measured with a UV-meter (Dr. Gröbel RM21).
Following UV irradiation, the test item was removed from the wells (one washing step with PBS) and replaced with sDMEM. Target cells were then incubated overnight at 37° C. in 6% CO2.
Each plate contained wells with cells and solvent but without test item which were either not incubated with Neutral Red solution (0% standard—S1) or were stained with Neutral Red (100% standard—S2) for calculation of the standard cell viability curve. Wells labeled with U01-U08 contained the different test item concentrations. […]

[2] = target: T1, hERG channel (Homo sapiens, UniProt Q12809); assay: hERG channel inhibition assay (patch-clamp, CHOhERG cells); format: cell-based; settings: for pIC50 / IC20: CHOhERG cells, whole-cell patch-clamp; for IC20: human, CHO cells stably expressing hERG (CHOhERG); for hERG IC20/TLR7 IC50 / hERG IC20/TLR8 IC50 / hERG IC20/TLR9 IC50: safety ratio
T1 construct: expressed in transfected cells; host or cells: CHO (Chinese hamster ovary), CHOhERG
Protocol: hERG Channel Inhibition Assay:
The hERG K^+ channels were cloned in humans and stably expressed in a CHO (Chinese hamster ovary) cell line. CHOhERG cells were used for patch-clamp (voltage-clamp, whole-cell) experiments. Cells were stimulated by a voltage pattern to activate hERG channels and conduct IKhERG currents (rapid delayed outward rectifier potassium current of the hERG channel). After the cells were stabilized for a few minutes, the amplitude and kinetics of IKhERG were recorded at a stimulation frequency of 0.1 Hz (6 bpm). Thereafter, the test compound was added to the preparation at increasing concentrations. For each concentration, an attempt was made to reach a steady-state effect, usually, this was achieved within 3-10 min at which time the next highest concentration was applied. The amplitude and kinetics of IKhERG are recorded in each concentration of the drug which were compared to the control values (taken as 100%). (references: Redfern W S, Carlsson L, Davis A S, Lynch W G, MacKenzie I, Palethorpe S, Siegl P K, Strang I, Sullivan A T, Wallis R, Camm A J, Hammond T G. 2003; Relationships between preclinical cardiac electrophysiology, clinical QT interval prolongation and torsade de pointes for a broad range of drugs: evidence for a provisional safety margin in drug development. Cardiovasc. Res. 58:32-45, Sanguinetti M C, Tristani-Firouzi M. 2006; hERG potassium channels and cardiac arrhythmia. Nature 440:463-469, Webster R, Leishman D, Walker D. 2002; Towards a drug concentration effect relationship for QT prolongation and torsades de pointes. Curr. Opin. Drug Discov. Devel. 5:116-26).
The calculation of hERG IC20/TLR7/8/9 IC50 below serves as early selectivity index to assess hERG liability.

T1 sequence (Q12809 whole entry): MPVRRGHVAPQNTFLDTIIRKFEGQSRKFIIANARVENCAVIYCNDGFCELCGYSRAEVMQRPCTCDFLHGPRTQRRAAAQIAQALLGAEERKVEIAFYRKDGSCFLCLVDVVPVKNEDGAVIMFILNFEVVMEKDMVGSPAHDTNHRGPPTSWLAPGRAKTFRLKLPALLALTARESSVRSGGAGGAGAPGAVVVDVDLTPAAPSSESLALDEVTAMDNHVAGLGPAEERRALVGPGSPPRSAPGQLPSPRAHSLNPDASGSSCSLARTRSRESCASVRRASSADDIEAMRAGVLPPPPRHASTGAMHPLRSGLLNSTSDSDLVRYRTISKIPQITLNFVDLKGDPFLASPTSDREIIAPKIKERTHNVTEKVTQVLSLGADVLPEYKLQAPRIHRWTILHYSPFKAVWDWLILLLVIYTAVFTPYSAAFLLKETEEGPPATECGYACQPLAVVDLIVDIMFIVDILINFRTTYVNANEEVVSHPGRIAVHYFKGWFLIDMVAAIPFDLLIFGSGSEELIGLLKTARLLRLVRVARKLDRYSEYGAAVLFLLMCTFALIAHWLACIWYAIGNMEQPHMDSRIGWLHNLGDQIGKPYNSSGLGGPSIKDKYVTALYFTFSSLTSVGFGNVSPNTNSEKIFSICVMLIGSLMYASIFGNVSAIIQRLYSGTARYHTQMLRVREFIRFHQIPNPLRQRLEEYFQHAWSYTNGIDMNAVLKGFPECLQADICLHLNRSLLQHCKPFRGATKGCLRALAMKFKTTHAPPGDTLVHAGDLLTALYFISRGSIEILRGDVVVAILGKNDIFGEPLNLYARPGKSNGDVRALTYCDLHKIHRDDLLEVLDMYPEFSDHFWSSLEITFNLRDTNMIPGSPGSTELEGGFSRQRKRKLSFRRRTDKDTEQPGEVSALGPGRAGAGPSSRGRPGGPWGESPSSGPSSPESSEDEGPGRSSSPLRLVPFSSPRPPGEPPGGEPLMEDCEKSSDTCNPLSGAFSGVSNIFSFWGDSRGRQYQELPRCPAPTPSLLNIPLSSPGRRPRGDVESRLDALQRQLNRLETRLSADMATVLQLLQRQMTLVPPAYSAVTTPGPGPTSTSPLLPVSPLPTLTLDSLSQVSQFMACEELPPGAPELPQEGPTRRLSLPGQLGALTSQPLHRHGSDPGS

SMILES | Phototoxicity factor [1] | IC50 [1] [µg/mL] | pIC50 [2] | IC20 [2] [µM] | hERG IC20/TLR7 IC50 [2] | hERG IC20/TLR8 IC50 [2] | hERG IC20/TLR9 IC50 [2]
[2H]c1ccc2c(N3C[C@@H]4CN(c5ccc([C@@H]6CNCCO6)cc5)CCN4[C@@H](C)C3)ccc(C#N)c2n1 [Example 106, 5-[(4S,9aS)-4-methyl-8-[4-[(2R)-morpholin-2-yl]phenyl]-3,4,6,7,9,9a-hexahydro-1H-pyrazino[1,2-a]pyrazin-2-yl]-2-deuterio-quinoline-8-carbonitrile] | >1.67 | 60.2 (≈ 128 µM) | < 4.70 | > 10 | >5000 | >2500 | >78
CO[C@@H]1CN(c2ccc(CCN3CCN4[C@@H](C3)CN(c3ccc(C#N)c5ncccc35)C[C@H]4C)cn2)C[C@H]1N [Example 12, 5-[(4R,9aS)-8-[2-[6-[(3R,4R)-3-amino-4-methoxy-pyrrolidin-1-yl]-3-pyridyl]ethyl]-4-methyl-3,4,6,7,9,9a-hexahydro-1H-pyrazino[1,2-a]pyrazin-2-yl]quinoline-8-carbonitrile] | >2.53 | – | < 4.70 | > 10 | >833 | >714 | >213
[2H]c1ccc2c(N3C[C@@H]4CN(CCc5ccc(N6C[C@H]7NCCO[C@@H]7C6)nc5)CCN4[C@H](C)C3)ccc(C#N)c2n1 [Example 77, 5-[(4R,9aS)-8-[2-[6-[(4aR,7aR)-3,4,4a,5,7,7a-hexahydro-2H-pyrrolo[3,4-b][1,4]oxazin-6-yl]-3-pyridyl]ethyl]-4-methyl-3,4,6,7,9,9a-hexahydro-1H-pyrazino[1,2-a]pyrazin-2-yl]-2-deuterio-quinoline-8-carbonitrile] | >1.9 | 52.5 (≈ 97.3 µM) | < 4.70 | > 10 | >476 | >416 | >227
C[C@@H]1CN(c2ccc(C#N)c3ncccc23)C[C@@H]2CN(c3cccc4c3CNC4)CCN21 [Example 9, 5-[(4R,9aS)-8-isoindolin-4-yl-4-methyl-3,4,6,7,9,9a-hexahydro-1H-pyrazino[1,2-a]pyrazin-2-yl]quinoline-8-carbonitrile] | >3.9 | 26.3 (≈ 61.9 µM) | < 4.70 | 5.17 | 1723 | 5170 | 65
C[C@@H]1CN(c2ccc(C#N)c3ncccc23)C[C@@H]2CN(Cc3ccc4c(c3)CNCC4)CCN21 [Example 5, 5-[(4R,9aS)-4-methyl-8-(1,2,3,4-tetrahydroisoquinolin-7-ylmethyl)-3,4,6,7,9,9a-hexahydro-1H-pyrazino[1,2-a]pyrazin-2-yl]quinoline-8-carbonitrile] | >1.39 | 23.3 (≈ 51.5 µM) | < 4.70 | > 10 | >588 | >833 | >313
C[C@@H]1CN(c2ccc(C#N)n3ncc(F)c23)C[C@@H]2CN(Cc3ccc4c(c3)CNCC4)CCN21 [Example 69, 4-[(4R,9aS)-4-methyl-8-(1,2,3,4-tetrahydroisoquinolin-7-ylmethyl)-3,4,6,7,9,9a-hexahydro-1H-pyrazino[1,2-a]pyrazin-2-yl]-3-fluoro-pyrazolo[1,5-a]pyridine-7-carbonitrile] | – | – | < 4.70 | > 10 | >152 | >192 | >70
Cc1cc(N2CC3(CN(C)C3)C2)cnc1N1CCN2[C@@H](C1)CN(c1cc(=O)n(C)c3ncccc13)C[C@@H]2C [Example 113, 4-[(4S,9aR)-4-methyl-8-[3-methyl-5-(6-methyl-2,6-diazaspiro[3.3]heptan-2-yl)-2-pyridyl]-3,4,6,7,9,9a-hexahydro-1H-pyrazino[1,2-a]pyrazin-2-yl]-1-methyl-1,8-naphthyridin-2-one] | – | – | < 4.70 | > 10 | >1666 | >70 | >79
[2H]c1ccc2c(N3C[C@@H]4CN(c5ccc(CCN6C[C@H](OC)[C@@H](N)C6)cn5)CCN4[C@H](C)C3)ccc(C#N)c2n1 [Example 109, 5-[(4R,9aR)-8-[5-[2-[(3S,4S)-3-amino-4-methoxy-pyrrolidin-1-yl]ethyl]-2-pyridyl]-4-methyl-3,4,6,7,9,9a-hexahydro-1H-pyrazino[1,2-a]pyrazin-2-yl]-2-deuterio-quinoline-8-carbonitrile] | – | – | < 4.70 | > 10 | >2000 | >2500 | >90
C[C@@H]1CN(c2ccc(C#N)c3ncccc23)C[C@@H]2CN(CCc3ccc(N4CC5(CN(C)C5)C4)nc3)CCN21 [Example 22, 5-[(4R,9aS)-4-methyl-8-[2-[6-(6-methyl-2,6-diazaspiro[3.3]heptan-2-yl)-3-pyridyl]ethyl]-3,4,6,7,9,9a-hexahydro-1H-pyrazino[1,2-a]pyrazin-2-yl]quinoline-8-carbonitrile] | – | – | < 4.70 | > 10 | >385 | >172 | >213
CO[C@@H]1CN(c2ccc(CCN3CCN4[C@@H](C3)CN(c3ccc(C#N)n5nccc35)C[C@H]4C)cc2)C[C@H]1N [Example 68, 4-[(4R,9aS)-8-[2-[4-[(3R,4R)-3-amino-4-methoxy-pyrrolidin-1-yl]phenyl]ethyl]-4-methyl-3,4,6,7,9,9a-hexahydro-1H-pyrazino[1,2-a]pyrazin-2-yl]pyrazolo[1,5-a]pyridine-7-carbonitrile] | 1.53 | 65.9 (≈ 128 µM) | – | – | – | – | –

From patent US20220340597A1, “HEXAHYDRO-1H-PYRAZINO[1,2-A]PYRAZINE COMPOUNDS FOR THE TREATMENT OF AUTOIMMUNE DISEASE” (Hoffmann-La Roche Inc., priority 2019, published 2022)
